According to patent US20230151432A1, “KIF18A INHIBITORS FOR TREATMENT OF NEOPLASTIC DISEASES” (AMGEN INC., priority 2020, published 2023):

How the values were obtained:
[1] = biological target: T1, human KIF18A (residues 1-467) (Homo sapiens, UniProt Q8NI77); assay: KIF18A MT-ATPase motor activity, ADP-Glo luminescence assay (Example 19); assay type: biochemical; conditions: human KIF18A 4 nM, 30 μM ATP; three independent experiments; read-out: IC50, KIF18A motor activity (MT-ATPase)
T1 construct: human KIF18A (residues 1-467, 4 nM); made in house
Description: A trio of KIF18A inhibitors (Compound C9, Compound C11, and Compound C12) were synthesized and tested in vitro for KIF18A inhibitory activity. […] The values represent mean t SEM from three independent experiments. […] As in vivo studies in mice were planned, the mouse KIF18A inhibitory effects of Compound C9 and C12 were assayed.
KIF18A compounds C9, C11, C12 were 2-fold serially diluted over a 22-point concentration range in DMSO using 384-well plate (Corning). Recombinant truncated kinesin motor proteins (human KIF18A (residues 1-467, 4 nM), mouse KIF18A (residues 1-467, 4 nM)) were expressed and purified. ADP-Glo luminescence assay (Promega) was used to measure the MT-ATPase motor activity. Porcine brain MTs were procured from Cytoskeleton Inc. Compounds were pre-incubated for <30 min in reaction buffer (15 mM Tris, pH 7.5, 10 mM MgCl2, 0.01% Pluronic F-68, 2% DMSO, 1 μM paclitaxel, 30 μg/mL MTs) with motor proteins at concentrations indicated above, 30 μM ATP was added to initiate the enzymatic reaction for 15 min at room temperature (RT). ADP-Glo reagents were added according to manufactures protocol, the luminescence intensity proportional to ADP present was measured using an EnVision plate reader (Perkin Elmer). Raw luminescence signal data was normalized to POC (percentage of positive control) and then Activity (%) was computed [POC=100×(sample signal−negative control signal)+(positive control signal−negative control signal). Activity (%)=POC−100]. The positive control (enzyme+substrate) and negative control (substrate alone) had equivalent concentrations of DMSO. Curve-fitting and IC50 values were determined by 4-parameter non-linear regression equation (variable slope) using GraphPad Prism 7.05 (GraphPad Software).

[2] = tested on: normal human foreskin fibroblast cells; assay: Arrayscan VTi multiplex imaging assays; assay type: cell-based; conditions: 48 hours, top 10 μM (C11) or 1 μM (C9); for total object count and BrdU incorporation: 9-point range
Description: Imaging assays were also carried out to determine the effects of KIF18A inhibitor treatment on normal somatic cells. Arrayscan VTi multiplex imaging assays were carried out with human FSF cells as described below. Briefly, normal human foreskin fibroblast cells were seeded at 6000 cells per well in 96-well imaging plates (Corning) and cultured overnight. The next day, two replicate 96-well plates were treated with DMSO or panel of test agents over a 9-point concentration range using 3-fold dilution with top concentration of 10 μM (KIF18A inhibitor Compound C11, nutlin-3a), 1 μM (KIF18A inhibitor Compound C9, BI-2536, ispinesib, paclitaxel), or 5 μM (palbociclib, GSK923295). After 48 hours of treatment, one plate was pulsed with BrdU (Invitrogen) for 3 hours before fixation. Both 96-well plates fixed with 4% formaldehyde (Thermo Scientific), washed twice with wash buffer [PBS, 1% BSA (Thermo Fisher), 0.2% Triton X-100 (Sigma)]. The first 96-well plate was processed for BrdU epitope detection using acid wash, blocked overnight at 4° C. in wash buffer supplemented with horse serum (4 drops serum per 10 mL) (Vector Labs) and stained with anti-BrdU-AlexaFluor-647 (B35140, Invitrogen, mouse, 3 μg per mL) and anti-p21 (12D1) (2947, Cell Signaling, rabbit, 1:400) antibodies for two hours at room temperature. Cells were washed twice in wash buffer and stained with secondary antibody [anti-rabbit-IgG-AlexaFluor-488 (A1 1034, Invitrogen, 1:2000)] and incubated for one hour at room temperature. The second 96-well plate was blocked overnight at 4° C. in wash buffer supplemented with horse serum (4 drops serum per 10 mL) (Vector Labs) and stained with anti-cl-PARP (214/215) (44-6986, Invitrogen, rabbit, 1:1500) and anti-γH2AX (05-636, Millipore, mouse, 1:1000) antibodies for two hours at room temperature. Cells were washed twice in wash buffer and stained with secondary antibodies [anti-rabbit-IgG-AlexaFluor-647 (A21245, Invitrogen, 1:2000), anti-mouse-IgG-AlexaFluor-488 (A1 1029, Invitrogen, 1:2000)] and incubated for one hour at room temperature. Both 96-well plates were washed twice and counterstained with Hoeschst 33342 (Invitrogen) nuclear dye. Imaging data was collected by widefield imaging on ArrayScan VTi HCS Reader (Thermo Scientific) from 64 fields per well using 20×objective. Valid nuclear object counts were determined for each well as well as the percentage of BrdU, p21, cl-PARP, and γH2AX positive objects for each test agent concentration and DMSO control. Concentration-response heatmaps were generated using GraphPad Prism software (V7.0.4).

[3] = tested on: panel of cell lines (HCC-1806, HCC-1937, BT-549, MDA-MB-157, MCF-7, CAL-51, MDA-MB-453, ZR-75-1, OVCAR-3, OVCAR-5); assay: 96 h cell growth assay (Example 19); assay type: cell-based; conditions: Homo sapiens, KIF18A inhibitor-sensitive cells (e.g., OVCAR-3 and BT-549), read-out: Mean Count EC50
Description: KIF18A inhibitor cancer cell line sensitivity profiles were determined for KIF18A inhibitor Compounds C9 and C11. Cells of various cancer cell lines were treated with DMSO or increasing concentrations of C9 or C11 for 96 h. The concentration-response profiles of some cancer cell lines (including, e.g., BT-549, OVCAR-3) for C11 were similar. […] Cancer cell lines CAL-51, MDA-MG-453 and OVCAR-5 were insensitive to C9 and C11.
Cell growth assay. A panel of cell lines (HCC-1806, HCC-1937, BT-549, MDA-MB-157, MCF-7, CAL-51, MDA-MB-453, ZR-75-1, OVCAR-3, OVCAR-5) were seeded in 96-well plate at densities optimized for 96 h cell growth assay. The next day, cells were treated with DMSO or one of the following compounds: KIF18A Inhibitor Compounds C9 and C11, or palbociclib, with top concentration of 6 μM (19-point concentration range) using staggered dose method. After 96 h, cells were fixed, stained, imaged, and analyzed as described above. Valid nuclear object counts were determined for each well and Count POC value was computed using the following formula [Count POC=(valid nuclear object count in treated well)+(valid nuclear object count in DMSO treated wells)×100]. Concentration-response curve-fitting was performed by 4-parameter non-linear regression equation using GraphPad Prism 7.05. Mean Count EC50 value was computed for each cell line from two independent experiments run in duplicate. […]

MDA-MB-157 cells = assay: pH3 and PCM spot EC50 determination; conditions: pH3 and PCM spot EC50 values

T1 sequence (Q8NI77 1-467): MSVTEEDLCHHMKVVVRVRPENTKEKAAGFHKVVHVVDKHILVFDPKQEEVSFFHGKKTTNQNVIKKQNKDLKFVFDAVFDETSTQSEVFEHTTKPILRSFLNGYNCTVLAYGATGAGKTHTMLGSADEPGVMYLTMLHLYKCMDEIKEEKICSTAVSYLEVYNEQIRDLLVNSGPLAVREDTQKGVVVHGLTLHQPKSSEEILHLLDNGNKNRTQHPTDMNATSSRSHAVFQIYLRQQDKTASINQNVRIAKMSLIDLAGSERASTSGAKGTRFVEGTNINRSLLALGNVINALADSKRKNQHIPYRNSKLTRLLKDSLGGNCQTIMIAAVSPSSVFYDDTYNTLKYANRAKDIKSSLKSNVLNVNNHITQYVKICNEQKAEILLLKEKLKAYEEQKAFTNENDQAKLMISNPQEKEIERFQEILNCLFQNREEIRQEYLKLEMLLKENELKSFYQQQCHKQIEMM
T1 sequence (P02550 whole entry partner, the tested form may be a part): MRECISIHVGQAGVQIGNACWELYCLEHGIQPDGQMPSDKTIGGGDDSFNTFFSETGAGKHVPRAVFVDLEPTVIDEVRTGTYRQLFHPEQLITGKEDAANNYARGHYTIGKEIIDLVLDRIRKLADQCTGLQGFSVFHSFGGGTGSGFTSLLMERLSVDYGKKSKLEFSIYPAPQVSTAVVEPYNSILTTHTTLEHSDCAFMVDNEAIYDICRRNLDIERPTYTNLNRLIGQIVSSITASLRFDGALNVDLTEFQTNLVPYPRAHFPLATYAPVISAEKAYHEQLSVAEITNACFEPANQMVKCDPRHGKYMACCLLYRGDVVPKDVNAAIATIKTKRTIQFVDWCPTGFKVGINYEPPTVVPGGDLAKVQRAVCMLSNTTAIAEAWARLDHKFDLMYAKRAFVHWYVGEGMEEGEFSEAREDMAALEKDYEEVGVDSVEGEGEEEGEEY
T1 sequence (P02554 whole entry partner, the tested form may be a part): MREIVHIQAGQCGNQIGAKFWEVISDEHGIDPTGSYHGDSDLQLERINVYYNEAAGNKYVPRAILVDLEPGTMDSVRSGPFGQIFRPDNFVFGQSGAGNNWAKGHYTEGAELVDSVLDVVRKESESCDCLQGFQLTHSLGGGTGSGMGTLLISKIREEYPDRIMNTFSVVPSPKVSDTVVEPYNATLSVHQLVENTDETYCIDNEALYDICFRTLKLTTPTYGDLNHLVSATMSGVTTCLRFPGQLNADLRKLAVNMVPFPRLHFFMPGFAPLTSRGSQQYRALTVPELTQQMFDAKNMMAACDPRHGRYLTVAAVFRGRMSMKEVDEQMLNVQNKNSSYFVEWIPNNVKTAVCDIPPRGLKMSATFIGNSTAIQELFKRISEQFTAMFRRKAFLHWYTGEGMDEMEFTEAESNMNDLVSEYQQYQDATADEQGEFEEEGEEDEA

Compound	IC50 [1] [nM]	total object count and BrdU incorporation [2]	cell cycle arrest measured by the induction of p21 protein expression [2]	induction of DNA damage measured by increase in γHH2X expression [2]	induction of apoptosis measured by cl-PARP expression [2]	EC50 [3] [nM]	improvement of cell potency relative to a control compound (MDA-MB-157 cells) [fold]
CC(C)(C)NS(=O)(=O)c1cccc(NC(=O)c2ccc(S(=O)(=O)NC(C)(C)C)cc2N2CCC3(CC2)CC3)c1 [Compound C9, 4-(N-(tert-butyl)sulfamoyl)-N-(3-(N-(tert-butyl)sulfamoyl)phenyl)-2-(6-azaspiro[2.5]octan-6-yl)benzamide]	180	behaved as vehicle control treated cells	no cell cycle arrest	no	no induction of apoptosis	21	> 450
CC(C)(CO)Nc1ccc(C(=O)Nc2cccc(S(=O)(=O)C3CCCC3)c2)c(N2CCC3(CC2)CC3)n1 [Compound C11, N-(3-(cyclopentylsulfonyl)phenyl)-6-((1-hydroxy-2-methylpropan-2-yl)amino)-2-(6-azaspiro[2.5]octan-6-yl)nicotinamide]	70	behaved as vehicle control treated cells	no cell cycle arrest	no	no induction of apoptosis	47	> 70
